In patent publication US6420367B1, “Pyrimidine derivatives exhibiting antitumor activity” (Shionogo & Co., Ltd., priority 1998, dated 2002):
Converted amounts (≈) assume the structure as drawn.

What was measured:
[1] = system: DT-R cells (pRRE3-luc-transfected v-ki-ras-transformed NIH3T3 cells); signal derived from Ras oncogene products; experiment: Inhibitory effect against cellular signaling derived from Ras oncogene products: luciferase reporter, dissociation of DT-R from DT-C activity (MAC); type: cell-based, mouse; conditions: minimal tested concentration at which luciferase activities of DT-C cells and DT-R cells dissociated
Summary of the method: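 DT-R (pRRE3-luc) and control DT-C (pGV-P) v-Ki-ras NIH3T3 cells were exposed 24 h to compound in 3-fold dilutions in DMEM/10% FCS at 37 °C, then lysed for luciferase luminescence. MAC is the lowest tested concentration at which DT-R and DT-C activities dissociate.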

[2] = system: human pancreas cancer PANC-1; experiment: In vitro cell growth inhibition test, MTT assay; type: cell-based; conditions: MTT assay 4 days after compound addition
Summary of the method: (§1)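 Cells from several human cancer lines, PANC-1 among them, were tested in vitro and viable growth was scored with the MTT assay.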

[3] = system: human squamous lung cancer Ma44; experiment: In vitro cell growth inhibition test, MTT assay; type: cell-based; conditions: MTT assay 4 days after compound addition
Summary of the method: as §1

[4] = system: human lung adenocarcinoma A549; experiment: In vitro cell growth inhibition test, MTT assay; type: cell-based; conditions: MTT assay 4 days after compound addition
Summary of the method: as §1

human colon cancer HT29 = experiment: In vitro cell growth inhibition test, MTT assay; type: cell-based; conditions: MTT assay 4 days after compound addition
Summary of the method: as §1

[5] = system: human squamous lung cancer RERF-RC-AI; experiment: In vitro cell growth inhibition test, MTT assay; type: cell-based; conditions: MTT assay 4 days after compound addition
Summary of the method: as §1

**Q.** With `CCNC(=Nc1nc(C)ncc1CSc1nnc(-c2ccc(N)cc2Cl)o1)NCC` [Compound A-64] as the compound, how does the “MAC (Minimal Active Concentration)” value [1] read?
**A.** Its value is 0.370 µg/mL.

**Q.** And the “IC50, PANC-1” value [2]?
**A.** The value was 30 ng/mL (≈ 0.0671 µM).

**Q.** What about the “IC50, Ma44” value [3] of the same compound?
**A.** The value was 86 ng/mL (≈ 0.192 µM).

**Q.** What about the “IC50, A549” value [4] of the same compound?
**A.** The value was 34 ng/mL (≈ 0.0761 µM).

**Q.** And the “IC50, HT29” value (human colon cancer HT29)?
**A.** Its value is 15 ng/mL (≈ 0.0336 µM).

**Q.** And the “IC50, RERF-LC-AI” value [5]?
**A.** Its value is 13 ng/mL (≈ 0.0291 µM).

**Q.** `Cc1ncc(CSc2nnc(-c3ccc([N+](=O)[O-])cc3)o2)c(N=C(NC(C)C)NC(C)C)n1` [Compound A-165] was tested. Which “MAC (Minimal Active Concentration)” value [1] did it give?
**A.** The value was 0.123 µg/mL.

**Q.** And the “IC50, PANC-1” value [2]?
**A.** The value was 50 ng/mL (≈ 0.106 µM).

**Q.** And the “IC50, Ma44” value [3]?
**A.** Its value is 55 ng/mL (≈ 0.117 µM).

**Q.** And the “IC50, A549” value [4]?
**A.** Its value is 95 ng/mL (≈ 0.202 µM).

**Q.** What about the “IC50, HT29” value (human colon cancer HT29) of the same compound?
**A.** The value was 52 ng/mL (≈ 0.111 µM).

**Q.** And the “IC50, RERF-LC-AI” value [5]?
**A.** Its value is 25 ng/mL (≈ 0.0531 µM).

**Q.** With `CCNC(=Nc1nc(C)ncc1CSc1nnc(-c2ccc([N+](=O)[O-])cc2F)o1)NCC` [Compound A-132] as the compound, how does the “MAC (Minimal Active Concentration)” value [1] read?
**A.** Its value is 0.123 µg/mL.

**Q.** What about the “IC50, PANC-1” value [2] of the same compound?
**A.** The value was 81 ng/mL (≈ 0.176 µM).

**Q.** And the “IC50, Ma44” value [3]?
**A.** The value was 77 ng/mL (≈ 0.167 µM).

**Q.** What about the “IC50, A549” value [4] of the same compound?
**A.** Its value is 180 ng/mL (≈ 0.391 µM).

**Q.** What about the “IC50, HT29” value (human colon cancer HT29) of the same compound?
**A.** Its value is 39 ng/mL (≈ 0.0847 µM).

**Q.** And the “IC50, RERF-LC-AI” value [5]?
**A.** The value was 50 ng/mL (≈ 0.109 µM).

**Q.** How did the “MAC (Minimal Active Concentration)” value [1] turn out when `CCNC(=Nc1nc(C)ncc1CSc1nnc(-c2ccc([N+](=O)[O-])cn2)o1)NCC` [Compound D-45] was run?
**A.** The value was 1.11 µg/mL.

**Q.** What about the “IC50, PANC-1” value [2] of the same compound?
**A.** Its value is 120 ng/mL (≈ 0.271 µM).

**Q.** What about the “IC50, Ma44” value [3] of the same compound?
**A.** Its value is 740 ng/mL (≈ 1.67 µM).

**Q.** What about the “IC50, A549” value [4] of the same compound?
**A.** Its value is 6.1 ng/mL (≈ 0.0138 µM).

**Q.** And the “IC50, HT29” value (human colon cancer HT29)?
**A.** The value was 38 ng/mL (≈ 0.0857 µM).

**Q.** And the “IC50, RERF-LC-AI” value [5]?
**A.** The value was 62 ng/mL (≈ 0.14 µM).

**Q.** Which “MAC (Minimal Active Concentration)” value [1] does the source give for `CCCCNC(=Nc1nc(C)ncc1CSc1nnc(-c2ccc(N)cc2)o1)NCCCC` [Compound A-169] here?
**A.** Its value is 0.0412 µg/mL.

**Q.** And the “IC50, PANC-1” value [2]?
**A.** Its value is 25 ng/mL (≈ 0.0533 µM).

**Q.** What about the “IC50, Ma44” value [3] of the same compound?
**A.** The value was 50 ng/mL (≈ 0.107 µM).

**Q.** What about the “IC50, A549” value [4] of the same compound?
**A.** Its value is 41 ng/mL (≈ 0.0875 µM).

**Q.** And the “IC50, HT29” value (human colon cancer HT29)?
**A.** The value was 27 ng/mL (≈ 0.0576 µM).

**Q.** What about the “IC50, RERF-LC-AI” value [5] of the same compound?
**A.** The value was 21 ng/mL (≈ 0.0448 µM).

**Q.** With `CNC(=Nc1ncncc1CSc1nnc(-c2ccc([N+](=O)[O-])cc2)o1)NC` [Compound A-173] as the compound, how does the “MAC (Minimal Active Concentration)” value [1] read?
**A.** Its value is 0.123 µg/mL.

**Q.** What about the “IC50, PANC-1” value [2] of the same compound?
**A.** The value was 7.2 ng/mL (≈ 0.018 µM).

**Q.** And the “IC50, Ma44” value [3]?
**A.** Its value is 7.2 ng/mL (≈ 0.018 µM).

**Q.** What about the “IC50, A549” value [4] of the same compound?
**A.** The value was 17 ng/mL (≈ 0.0425 µM).

**Q.** What about the “IC50, HT29” value (human colon cancer HT29) of the same compound?
**A.** Its value is 6 ng/mL (≈ 0.015 µM).

**Q.** What about the “IC50, RERF-LC-AI” value [5] of the same compound?
**A.** The value was 3.7 ng/mL (≈ 0.00924 µM).

**Q.** With `CCCNC(=Nc1nc(C)ncc1CSc1nnc(-c2ccc([N+](=O)[O-])cc2)o1)NCC` [Compound A-135] as the compound, how does the “MAC (Minimal Active Concentration)” value [1] read?
**A.** Its value is 0.0137 µg/mL.

**Q.** What about the “IC50, PANC-1” value [2] of the same compound?
**A.** Its value is 17 ng/mL (≈ 0.0372 µM).

**Q.** And the “IC50, Ma44” value [3]?
**A.** The value was 16 ng/mL (≈ 0.035 µM).

**Q.** What about the “IC50, A549” value [4] of the same compound?
**A.** The value was 52 ng/mL (≈ 0.114 µM).

**Q.** What about the “IC50, HT29” value (human colon cancer HT29) of the same compound?
**A.** Its value is 10 ng/mL (≈ 0.0219 µM).

**Q.** And the “IC50, RERF-LC-AI” value [5]?
**A.** Its value is 12 ng/mL (≈ 0.0263 µM).

**Q.** For `CCCCNC(=Nc1nc(C)ncc1CSc1nnc(-c2ccc(N)cc2)o1)NCC` [Compound A-180], which “MAC (Minimal Active Concentration)” value [1] is on record?
**A.** The value was 0.00457 µg/mL.

**Q.** And the “IC50, PANC-1” value [2]?
**A.** The value was 8.1 ng/mL (≈ 0.0184 µM).

**Q.** What about the “IC50, Ma44” value [3] of the same compound?
**A.** Its value is 16 ng/mL (≈ 0.0363 µM).

**Q.** What about the “IC50, A549” value [4] of the same compound?
**A.** The value was 14 ng/mL (≈ 0.0318 µM).

**Q.** What about the “IC50, HT29” value (human colon cancer HT29) of the same compound?
**A.** Its value is 12 ng/mL (≈ 0.0272 µM).

**Q.** And the “IC50, RERF-LC-AI” value [5]?
**A.** The value was 8 ng/mL (≈ 0.0182 µM).

**Q.** `CNC(=Nc1nc(C)ncc1CSc1nnc(-c2ccccc2N)o1)NC` [Compound A-70] was tested. Which “MAC (Minimal Active Concentration)” value [1] did it give?
**A.** The value was 0.123 µg/mL.

**Q.** And the “IC50, PANC-1” value [2]?
**A.** Its value is 15 ng/mL (≈ 0.039 µM).

**Q.** What about the “IC50, Ma44” value [3] of the same compound?
**A.** Its value is 32 ng/mL (≈ 0.0832 µM).

**Q.** And the “IC50, A549” value [4]?
**A.** Its value is 13 ng/mL (≈ 0.0338 µM).

**Q.** And the “IC50, HT29” value (human colon cancer HT29)?
**A.** Its value is 8.4 ng/mL (≈ 0.0218 µM).

**Q.** What about the “IC50, RERF-LC-AI” value [5] of the same compound?
**A.** Its value is 6.7 ng/mL (≈ 0.0174 µM).

**Q.** Which “MAC (Minimal Active Concentration)” value [1] does the source give for `CCNC(=Nc1ncncc1CSc1nnc(-c2ccc([N+](=O)[O-])cc2)o1)NCCN` [Compound A-122] here?
**A.** Its value is 1.11 µg/mL.

**Q.** And the “IC50, PANC-1” value [2]?
**A.** Its value is 210 ng/mL (≈ 0.474 µM).

**Q.** What about the “IC50, Ma44” value [3] of the same compound?
**A.** Its value is 300 ng/mL (≈ 0.676 µM).

**Q.** What about the “IC50, A549” value [4] of the same compound?
**A.** Its value is 2100 ng/mL (≈ 4.74 µM).

**Q.** And the “IC50, HT29” value (human colon cancer HT29)?
**A.** Its value is 89 ng/mL (≈ 0.201 µM).

**Q.** And the “IC50, RERF-LC-AI” value [5]?
**A.** The value was 140 ng/mL (≈ 0.316 µM).

**Q.** What does the source list for `CCNC(N)=Nc1nc(C)ncc1CSc1nnc(-c2ccc([N+](=O)[O-])cc2)o1` [Compound A-185]?
**A.** MAC (Minimal Active Concentration) [1]: 0.0137 µg/mL; IC50, PANC-1 [2]: 4.1 ng/mL (≈ 0.00989 µM); IC50, Ma44 [3]: 6.2 ng/mL (≈ 0.015 µM); IC50, A549 [4]: 13 ng/mL (≈ 0.0314 µM); IC50, HT29 (human colon cancer HT29): 6.4 ng/mL (≈ 0.0154 µM); IC50, RERF-LC-AI [5]: 2.9 ng/mL (≈ 0.007 µM)

**Q.** What does the source list for `CCNC(=Nc1ncncc1CSc1nnc(-c2ccc(F)cc2N)o1)NCC` [Compound A-65]?
**A.** MAC (Minimal Active Concentration) [1]: <0.000508 µg/mL; IC50, PANC-1 [2]: 2.1 ng/mL (≈ 0.00504 µM); IC50, Ma44 [3]: 90 ng/mL (≈ 0.216 µM); IC50, A549 [4]: 2.8 ng/mL (≈ 0.00672 µM); IC50, HT29 (human colon cancer HT29): 1.4 ng/mL (≈ 0.00336 µM); IC50, RERF-LC-AI [5]: 1.4 ng/mL (≈ 0.00336 µM)

**Q.** What does the source list for `CCCNC(=Nc1ncncc1CSc1nnc(-c2ccc([N+](=O)[O-])cc2)o1)NCC` [Compound A-179]?
**A.** MAC (Minimal Active Concentration) [1]: 0.0137 µg/mL; IC50, PANC-1 [2]: 1.8 ng/mL (≈ 0.00407 µM); IC50, Ma44 [3]: 2.6 ng/mL (≈ 0.00588 µM); IC50, A549 [4]: 14 ng/mL (≈ 0.0316 µM); IC50, HT29 (human colon cancer HT29): 6.3 ng/mL (≈ 0.0142 µM); IC50, RERF-LC-AI [5]: 2 ng/mL (≈ 0.00452 µM)
